Assays:
[1] = test system: human blood platelet aggregation, ADP-induced; test: Inhibition of ADP-induced human blood platelet aggregation (aggregometry, platelet-rich plasma); assay type: cell-based; details: Platelet; 50 μM evaluant; human PRP; % reduction in maximal aggregation intensity vs control
Protocol: (§1) Adenosine diphosphate (ADP) used to induce platelet aggregation was employed as the sodium salt. A 10 mM stock solution was prepared fresh before each use in modified Tyrode's buffer and working dilutions were prepared with modified Tyrode's buffer immediately prior to use. The buffer contained NaCl (137.00 mM), KCl (2.70 mM), NaHCO3 (11.90 mM), NaH2 PO4.H2 O (0.36 mM) and glucose (5.60 mM) in redistilled water. Adjustment to pH 7.4 was effected by addition of 1N HCl. A solution of highly purified human α-thrombin (10,624 units/ml) wss stored at -70° C. in 10 μl aliquots. The latter were diluted with modified Tyrode's buffer to a concentration of 10.0 units/ml immediately prior to use.
(§2) Venous blood for the examples set forth below was collected in plastic syringes from healthy male volunteers (aged 21-30 years) who had fasted overnight and had abstained from all medications, alcohol, tobacco and caffeine for a period of at least one week prior to donations. In experiments employing ADP as the aggregation-inducing agent, the blood was transferred into siliconized centrifuge tubes containing 3.2% sodium citrate (blood/citrate ratio 8:1); in thrombin-induced aggregations, 3.8% sodium citrate (blood/citrate ratio 9:1) was used. The cirtrated whole blood was centrifuged at 120×g for 15 minutes at 23° C., yielding platelet-rich plasma (PRP); platelet-poor plasma (PPP) was obtained by centrifugation of citrated whole blood at 1,100×g for […] at 23° C. The platelet count of PRP was determined and adjusted to a final count of 300,000 platelets per mm^3 by dilution with autologous PPP. (Occasionally, blood from a given donor yielded PRP with a count lower than the stipulated figure; however, this was usually greater than 285,000, and never less than 250,000 platelets per mm^3.) The plasma so obtained was transferred in 1.2-ml aliquots to siliconized glass tubes, by means of a siliconized Pasteur pipet. In order to maintain plasma pH in the appropriate range, the air in the tubes was displaced gently (1 minute) with a 5% CO2 -95% air (v/v) mixture and the tubes sealed with Parafilm according to the method of Han et al, Br. J. Haematol. Vol. 26, pages 373-389 (1974). The plasma was maintained at 37° C. in a water bath until used in the aggregation experiments.
Assays of platelet aggregation was performed at least in duplicate, using plasma acquired from different donors, employing a method developed by Quintana et al (Quintana et al, Thromb. Res., Vol. 22, pages 665-680 (1981); Quintana et al, Thromb. Res., Vol. 20, pages 405-415 (1980) (cf. Born, Nature, Vol. 194, pages 927-929 (1962) and Mustard et al, J. Lab. Clin. Med., Vol. 64, pages 548-559 (1964)).
Initially, in each experiment, 0.45-ml aliquots of PRP were placed in siliconized cuvettes and stirred (1,100 rpm) in the aggregometer at 37° C. to ascertain the absence of spontaneous aggregation. Appropriate ADP solutions (50 μl) were subsequently injected using a Hamilton microliter syringe to determine the minimal concentration eliciting maximal biphasic aggregation. This ranged from 2 μM to 8 μM (cf. Quintana et al, Thromb. Res., Vol. 22, pages 665-680 (1981); Quintana et al, Thromb. Res., Vol. 20, pages 405-415 (1980)). In each case, the concentration of ADP so determined was used in eliciting aggregation throughout each specific set of aggregometric evaluations. In all thrombin-induced aggregation experiments the same stimulus was applied; this constituted injection of 50 μl of the solution containing 10.0 units of α-thrombin/ml (affording a final concentration of 1.0 unit of α-thrombin/ml PRP).
0.5 μl of a solution of the evaluant compound in redistilled 95% ethanol was injected into a stirred (1,100 rpm) 0.45-ml aliquot of plasma in a siliconized cuvette in the aggregometer-well (37° C.). After 15 seconds, the cuvette was transferred to an incubator (also at 37° C.) and the contents held at this temperature, without stirring, until 2 minutes post-injection. […]

[2] = test system: human blood platelet aggregation, thrombin-induced; test: Inhibition of thrombin-induced human blood platelet aggregation (aggregometry, platelet-rich plasma); assay type: cell-based; details: 50 μM evaluant; human PRP; 1.0 unit α-thrombin/ml PRP
Protocol: as §1
as §2, with “experiments. […]” for “experiments.”
Initially, in each experiment, 0.45-ml aliquots of PRP were placed in siliconized cuvettes and stirred (1,100 rpm) in the aggregometer at 37° C. to ascertain the absence of spontaneous aggregation. […] In each case, the concentration of ADP so determined was used in eliciting aggregation throughout each specific set of aggregometric evaluations. […]

[3] = literature; cited from earlier work
patient's platelets = details: Walder et al; cited from earlier work

In the case of `CC(=O)Oc1ccccc1C(=O)O` [aspirin, reference compound], the inhibition at 50 µM [1] is given as 24%, the “% inhibition of aggregation, thrombin-induced” value [2] is given as 9% and the “deleterious / adverse effects” value [3] is given as “severe enough to counsel against its use by survivors of myocardial infarction”. For the same compound, the “effect on patient's platelets” value (patient's platelets) was “incapacitate the patient's platelets for the rest of their life span”.

— US4634709A, “Platelet aggregation inhibitory agents and intermediates therefor” (Research Corporation, priority 1984, dated 1987)
